Reference: patent publication US20240325398A1, “COMBINATION THERAPIES” (Infinity Pharmaceuticals, Inc., priority 2014, published 2024)

Assays:
[1] = Combination study, ATPLite 72 h, dose matrix (Synergy Score, CI50); conditions: combination with Compound 1; OPM-2
OMP-2 = experiment: as above; conditions: combination with Compound 1; OPM-2
U-2932 = experiment: as above
RPMI-8226 = experiment: as above; conditions: combination with Compound 1
Experimental: (§1) Cells are thawed from a liquid nitrogen preserved state. Once cells have been expanded and divide at their expected doubling times, screening begins. Cells are seeded in growth media in either black 1536-well or 384-well tissue culture treated plates. Cells are then equilibrated in assay plates via centrifugation and placed in incubators attached to the Dosing Modules at 37° C. for 24 hours before treatment. […] These Tzero (To) plates are read using ultra-sensitive luminescence on Envision plate readers (Perkin Elmer). Treated assay plates are incubated with compound for 72 hours. After 72 hours, plates are developed for endpoint analysis using ATPLite. All data points are collected via automated processes, quality controlled and analyzed using Zalicus software.
(§2) where T is treated cell count and V is untreated (vehicle) cell count (at 72 hours). I ranges from 0% (when T=V) to 100% (when T=0). […] The measure of effect in the experiment can be the inhibition of cellular response relative to the untreated level (vehicle alone). […] The inhibition ranges from 0% at the untreated level to 100% when T=0. Inhibition levels are negative for agents that actually increase levels. Other effect measures, such as an activity ratio r=T/V may be more appropriate for some assays. When activity ratios (e.g, fold increase over stimulated control) are being used, the effect can be measured using an induction 1=ln(T/V). With this definition, all effect expressions are the same as for inhibition.
(§3) Growth Inhibition (GI) is used as a measure of cell viability. […] A GI reading of 100% represents complete growth inhibition—T72 compound-treated and T0 vehicle signals are matched. […] A GI reading of 200% represents complete death of all cells in the culture well. Compounds reaching an activity plateau of GI 200% are considered cytotoxic. GI is calculated by applying the following test and equation:
(§4) Combination analysis data were collected in a 6×6 dose matrix. Synergy is calculated by comparing a combination's response to those of its single compound, against the drug-with-itself dose-additive reference model. Deviations from dose additivity may be assessed visually on an isobologram or numerically with a Combination Index (CI). […] Additive effect is CI=1.0. […] Antagonistic effect is CI>1.0.
(§5) To measure combination effects in excess of Loewe additivity, a scalar measure to characterize the strength of synergistic interaction termed the Synergy Score is devised. The Synergy Score is calculated as:
(§6) The fractional inhibition for each component agent and combination point in the matrix is calculated relative to the median of all vehicle-treated control wells. The Synergy Score equation integrates the experimentally-observed activity volume at each point in the matrix in excess of a model surface numerically derived from the activity of the component agents using the Loewe model for additivity. Additional terms in the Synergy Score equation (above) are used to normalize for various dilution factors used for individual agents and to allow for comparison of synergy scores across an entire experiment. The inclusion of positive inhibition gating or an Idata multiplier removes noise near the zero effect level, and biases results for synergistic interactions at that occur at high activity levels.
(§7) Loewe Volume (Loewe Vol) is used to assess the overall magnitude of the combination interaction in excess of the Loewe additivity model. Loewe Volume is particularly useful when distinguishing synergistic increases in a phenotypic activity (positive Loewe Volume) versus synergistic antagonisms (negative Loewe Volume). […] This model defines additivity as a non-synergistic combination interaction where the combination dose matrix surface should be indistinguishable from either drug crossed with itself.

HBL-1 = experiment: as above
NCI-H929 = experiment: as above; conditions: combination with Compound 1
Mino = experiment: as above; conditions: combination with Compound 1
Experimental: as §1, §2, §3, §4, §5, §6, §7

[2] = system: ibrutinib-resistant SU-DHL-4 clones; experiment: CTG (Cell Titer Glo) IC50, ibrutinib-resistant clones; type: cell-based; conditions: ibrutinib clones 2B.3, 5C.3, 10B.3, 11D.3, 11G.3
Experimental: The DMSO stock for each compound was diluted to 5 mM or 1 mM with DMSO. A 1:1000 dilution was performed into the plated cells (10 uL) for a final of 1 uM or 5 uM (final DMSO […]). Cells were counted 2 times per week and cell densities were adjusted back to 2.5×10^5 c/mL as needed. Media/Compound was replenished as needed and Media/Compound was replaced 1× per week. Compound treatment lasted for 28 days. Compound was washed out for 1 week and cells were subsequently used in assays to determine resistance after 4 weeks of treatment.
The cell line pool was treated with compound for an additional 28 days prior to subcloning. Altogether, the cell line pool was under selective pressure for a total of 8 weeks.
Cell lines were subcloned at 3, 1, and 0.3 cells per well (cpw). 1:10 of conditioned medium (CM) was included in medium in addition to corresponding DMSO control or compound. During subcloning optimization experiments, the SU-DHL-4 cell line could only be subcloned in the presence of 1:10 conditioned medium. Conditioned medium (CM) was collected 4 days after splitting the parent cell line and when cells were approximately 90% confluent. Cells were spun down and the supernatant (CM) was collected down. […]
All cell lines subcloned grew out. […] Once expanded in a 24 well plate, the 12 clones per cell line were evaluated for viability by flow using the Dead_Live kit (Invitrogen #L23101).

SU-DHL-6-epst = experiment: Combination study of Compound 1 or CAL-101 and a second therapeutic agent (Synergy Score, CI50); type: cell-based
DoHH2 tumor = type: in vivo
Experimental: In particular, tolerability of the combination treatment was assessed in DoHH2 tumor bearing CB17.SCID female mice (a follicular lymphoma subcutaneous model). […] Plasma samples were collected on day 7 (trough, 1, 2, 4, and 6 h post dose) and on day 14 (2 h post final dose).

[3] = Tolerability and pharmacokinetics of Compound 1 with dexamethasone in non-tumor bearing mice; type: in vivo
Experimental: The effects of a combination of Compound 1 and dexamethasone were assessed in vivo in non-tumor bearing mice. Dexamethasone is an inducer of CYP2B6 and CYP3A4 and thus might be expected to decrease exposure of Compound 1. Tolerability of the combination was assessed in non-tumor bearing CD17.SCID female mice. Treatment was carried out for 14 days using the following treatment groups: 1) Vehicle 1 (5% NMP+95% PEG400)+Vehicle 2 (saline); 2) Compound 1 (50 mg/kg, QD, PO)+Vehicle 2; 3) Vehicle 1+Dex 1 (5 mg/kg, Q3D, IP); 4) Compound 1+Dex 1; 5) Vehicle 1+Dex 2 (1 mg/kg, Q3D, IP); 6) Compound 1+Dex 2. PEG400 refers to polyethylene glycol-400. NMP refers to N-methyl-2-pyrrolidone. Dex refers to dexamethasone. Q3D refers to administration every third day. PO refers to oral administration. IP refers to intraperitoneal administration. Plasma samples were collected on day 14 at the trough, 1, 2, 4, and 6 h post dose for pharmacokinetic analysis.

[4] = combination with CAL-101, Example 2
[5] = combination with Cmpd 1, Example 2
[6] = combination with Compound 1, 72 h

Q: For `C[C@@H]1C[C@H]2[C@@H]3CCC4=CC(=O)C=C[C@]4(C)[C@@]3(F)[C@@H](O)C[C@]2(C)[C@@]1(O)C(=O)CO` [dexamethasone, (8S,9R,10S,11S,13S,14S,16R,17R)-9-Fluoro-11,17-dihydroxy-17-(2-hydroxyacetyl)-10,13,16-trimethyl-6,7,8,9,10,11,12,13,14,15,16,17-dodecahydro-3H-cyclopenta[a]phenanthren-3-one], which CI50 growth inhibition [1] is on record?
A: Its CI50 growth inhibition is “S (S=0.01 to <0.5)”.

Q: And the CI50 inhibition (OMP-2)?
A: Its CI50 inhibition is “U (U=0.7 to <1)”.

Q: What about the “Synergy Score growth inhibition” value (OMP-2) of the same compound?
A: The value was “A2 (A2=1 to <3)”.

Q: And the “Synergy Score inhibition” value (OMP-2)?
A: The value was “A1 (A1=0.0001 to <1)”.

Q: And the CI50 growth inhibition (U-2932; [4])?
A: Its CI50 growth inhibition is “S (S=0.01 to <0.5)”.

Q: What about the CI50 inhibition (U-2932; [4]) of the same compound?
A: The CI50 inhibition was “S (S=0.01 to <0.5)”.

Q: And the “Synergy Score growth inhibition” value (U-2932; [4])?
A: The value was “A2 (A2=1 to <3)”.

Q: And the “Synergy Score inhibition” value (U-2932; [4])?
A: Its value is “A2 (A2=1 to <3)”.

Q: What about the CI50 growth inhibition (U-2932; [5]) of the same compound?
A: The CI50 growth inhibition was “S (S=0.01 to <0.5)”.

Q: And the CI50 inhibition (U-2932; [5])?
A: The CI50 inhibition was “S (S=0.01 to <0.5)”.

Q: And the “Synergy Score growth inhibition” value (U-2932; [5])?
A: Its value is “A3 (A3=>3)”.

Q: And the “Synergy Score inhibition” value (U-2932; [5])?
A: Its value is “A2 (A2=1 to <3)”.

Q: And the CI50 growth inhibition (U-2932; [6])?
A: Its CI50 growth inhibition is “S (S=0.01 to <0.5)”.

Q: What about the CI50 inhibition (U-2932; [6]) of the same compound?
A: The CI50 inhibition was “S (S=0.01 to <0.5)”.

Q: And the “Synergy Score growth inhibition” value (U-2932; [6])?
A: The value was “A3 (A3=>3)”.

Q: And the “Synergy Score inhibition” value (U-2932; [6])?
A: The value was “A2 (A2=1 to <3)”.

Q: And the CI50 growth inhibition (RPMI-8226)?
A: The CI50 growth inhibition was “S (S=0.01 to <0.5)”.

Q: What about the CI50 inhibition (RPMI-8226) of the same compound?
A: The CI50 inhibition was “U (U=0.7 to <1)”.

Q: And the “Synergy Score growth inhibition” value (RPMI-8226)?
A: The value was “A3 (A3=>3)”.

Q: And the “Synergy Score inhibition” value (RPMI-8226)?
A: The value was “A2 (A2=1 to <3)”.

Q: And the CI50 growth inhibition (HBL-1; [4])?
A: Its CI50 growth inhibition is “T (T=0.5 to <0.7)”.

Q: What about the CI50 inhibition (HBL-1; [4]) of the same compound?
A: Its CI50 inhibition is “S (S=0.01 to <0.5)”.

Q: What about the “Synergy Score growth inhibition” value (HBL-1; [4]) of the same compound?
A: Its value is “A2 (A2=1 to <3)”.

Q: What about the “Synergy Score inhibition” value (HBL-1; [4]) of the same compound?
A: The value was “A2 (A2=1 to <3)”.

Q: And the CI50 growth inhibition (HBL-1; [5])?
A: Its CI50 growth inhibition is “T (T=0.5 to <0.7)”.

Q: What about the CI50 inhibition (HBL-1; [5]) of the same compound?
A: The CI50 inhibition was “U (U=0.7 to <1)”.

Q: And the “Synergy Score growth inhibition” value (HBL-1; [5])?
A: The value was “A2 (A2=1 to <3)”.

Q: What about the “Synergy Score inhibition” value (HBL-1; [5]) of the same compound?
A: Its value is “A2 (A2=1 to <3)”.

Q: What about the CI50 growth inhibition (HBL-1; [6]) of the same compound?
A: The CI50 growth inhibition was “S (S=0.01 to <0.5)”.

Q: What about the CI50 inhibition (HBL-1; [6]) of the same compound?
A: The CI50 inhibition was “U (U=0.7 to <1)”.

Q: And the “Synergy Score growth inhibition” value (HBL-1; [6])?
A: The value was “A3 (A3=>3)”.

Q: And the “Synergy Score inhibition” value (HBL-1; [6])?
A: The value was “A2 (A2=1 to <3)”.

Q: What about the CI50 growth inhibition (NCI-H929) of the same compound?
A: The CI50 growth inhibition was “S (S=0.01 to <0.5)”.

Q: What about the CI50 inhibition (NCI-H929) of the same compound?
A: Its CI50 inhibition is “U (U=0.7 to <1)”.

Q: And the “Synergy Score growth inhibition” value (NCI-H929)?
A: The value was “A3 (A3=>3)”.

Q: And the “Synergy Score inhibition” value (NCI-H929)?
A: The value was “A2 (A2=1 to <3)”.

Q: What about the CI50 growth inhibition (Mino) of the same compound?
A: The CI50 growth inhibition was “S (S=0.01 to <0.5)”.

Q: And the CI50 inhibition (Mino)?
A: The CI50 inhibition was “S (S=0.01 to <0.5)”.

Q: And the “Synergy Score growth inhibition” value (Mino)?
A: The value was “A3 (A3=>3)”.

Q: What about the “Synergy Score inhibition” value (Mino) of the same compound?
A: The value was “A2 (A2=1 to <3)”.

Q: For `C[C@H](Nc1ncnc2[nH]cnc12)c1cc2cccc(Cl)c2c(=O)n1-c1ccccc1` [Compound 1, (S)-3-(1-((9H-purin-6-yl)amino)ethyl)-8-chloro-2-phenylisoquinolin-1(2H)-one], which “cross-resistance of ibrutinib-resistant clones” value [2] is on record?
A: The value was “no cross-resistance”.

Q: And the CI50 growth inhibition (SU-DHL-6-epst; combination with Dexamethasone)?
A: The CI50 growth inhibition was “T (T=0.5 to <0.7)”.

Q: What about the CI50 inhibition (SU-DHL-6-epst; combination with Dexamethasone) of the same compound?
A: The CI50 inhibition was “T (T=0.5 to <0.7)”.

Q: And the “Synergy Score growth inhibition” value (SU-DHL-6-epst; combination with Dexamethasone)?
A: The value was “A3 (A3=>3)”.

Q: And the “Synergy Score inhibition” value (SU-DHL-6-epst; combination with Dexamethasone)?
A: The value was “A2 (A2=1 to <3)”.

Q: What about the CI50 growth inhibition (SU-DHL-6-epst; combination with LEE011) of the same compound?
A: Its CI50 growth inhibition is “S (S=0.01 to <0.5)”.

Q: What about the “Synergy Score growth inhibition” value (SU-DHL-6-epst; combination with LEE011) of the same compound?
A: Its value is “A2 (A2=1 to <3)”.

Q: And the “Synergy Score inhibition” value (SU-DHL-6-epst; combination with LEE011)?
A: The value was “A1 (A1=0.0001 to <1)”.

Q: And the CI50 growth inhibition (SU-DHL-6-epst; combination with PCI-32765)?
A: The CI50 growth inhibition was “S (S=0.01 to <0.5)”.

Q: What about the CI50 inhibition (SU-DHL-6-epst; combination with PCI-32765) of the same compound?
A: The CI50 inhibition was “S (S=0.01 to <0.5)”.

Q: What about the “Synergy Score growth inhibition” value (SU-DHL-6-epst; combination with PCI-32765) of the same compound?
A: The value was “A3 (A3=>3)”.

Q: What about the “Synergy Score inhibition” value (SU-DHL-6-epst; combination with PCI-32765) of the same compound?
A: Its value is “A2 (A2=1 to <3)”.

Q: What about the CI50 growth inhibition (SU-DHL-6-epst; combination with PD-0332991) of the same compound?
A: The CI50 growth inhibition was “S (S=0.01 to <0.5)”.

Q: What about the CI50 inhibition (SU-DHL-6-epst; combination with PD-0332991) of the same compound?
A: The CI50 inhibition was “S (S=0.01 to <0.5)”.

Q: And the “Synergy Score growth inhibition” value (SU-DHL-6-epst; combination with PD-0332991)?
A: Its value is “A2 (A2=1 to <3)”.

Q: What about the “Synergy Score inhibition” value (SU-DHL-6-epst; combination with PD-0332991) of the same compound?
A: The value was “A2 (A2=1 to <3)”.

Q: What about the tumor volume (DoHH2 tumor; Compound 1 50 mg/kg QD PO plus dexamethasone 5 mg/kg Q3D IP, after 12 days, versus vehicle, Compound 1 alone or dexamethasone alone, FIG. 8) of the same compound?
A: The tumor volume was “lower”.

Q: What about the tumor growth inhibition (DoHH2 tumor; Compound 1 50 mg/kg QD in combination with dexamethasone 5 mg/kg Q3D IP, compared to either monotherapy) of the same compound?
A: The tumor growth inhibition was “greater tumor growth inhibition”.

Q: And the “tolerability of the combination (body weight)” value (DoHH2 tumor; co-administration of dexamethasone and Compound 1 in mice)?
A: The value was “tolerable”.

Q: What about the “Compound 1 plasma exposure” value ([3]; 50 mg/kg Compound 1 PO in combination with dexamethasone 5 mg/kg Q3D, versus Compound 1 alone) of the same compound?
A: Its value is “decrease”.

Q: And the “mean plasma concentration of Compound 1” value ([3]; 50 mg/kg Compound 1 plus 1 mg/kg dexamethasone (Q3D) versus 50 mg/kg Compound 1 alone)?
A: The value was “relatively similar”.

Q: And the “decrease of Compound 1 plasma exposure” value ([3]; co-administered with higher dose of dexamethasone, 5 mg/kg)?
A: Its value is “about 30%”.

Q: What about the “degree of Compound 1 exposure” value ([3]; single agent versus combination with dexamethasone 1 mg/kg) of the same compound?
A: Its value is “similar”.
